In US12473262B2, “Aryl hydrocarbon receptor activators” (Oregon State University, priority 2019, dated 2025):
Like-named read-outs stand apart in the source and are kept apart here.

Assays:
T1D = details: murine model; cited from earlier work
GVHD = details: murine model; cited from earlier work
[1] = acute or chronic treatment of mice, therapeutic dose; cited from earlier work
[2] = target: aryl hydrocarbon receptor (AhR) (Mus musculus (Mouse), UniProt P30561); experiment: AhR ligand screening: AhRE-luciferase reporter in transfected Hepa1 cells; assay type: cell-based; details: for Fold @ 1 nM: fold change of luciferase expression at 1 nM test compound relative to vehicle (0.1% DMSO); for Fold @ 100 nM: fold change of luciferase expression at 100 nM test compound relative to vehicle (0.1% DMSO); for Fold @ 10 uM: fold change of luciferase expression at 10 uM test compound relative to vehicle (0.1% DMSO); for Fold relative to benchmark @ 100 nM: luciferase expression at 100 nM test compound relative to 100 nM benchmark compound 11-cl-BBQ
In short: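 Values are fold luciferase induction relative to vehicle (0.1% DMSO), read by luminometry of lysates from Hepa1 cells carrying an AhRE-driven luciferase reporter. Cells were seeded at 1×10^4 per well, grown overnight and treated with compound before lysis.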

[3] = human, microsomes, 0.5 h, 1 μM, pH 7.4
Protocol: (§3) The assessment of metabolic stability of testing compounds was performed using human, mouse, rat, dog and monkey liver microsomes (20 mg protein/ml). Each reaction mixture contained 42.5 μL of 0.1 M potassium phosphate buffer pH 7.4, containing respective LM protein (final concentration 0.5 mg/ml). 2.5 μL of the compound stock solution was added in it (1 μM final concentration). The reaction was initiated by the addition of 5 μL NADPH solution (final Concentration 1 mM). At different time points (0, 5, 15, and 30 minutes), samples were quenched with 200 μL of cold acetonitrile containing ISTD Propranolol. Samples were centrifuged at 3500 rpm for 20 mM at 4° C. Supernatant was subjected to LC-MS/MS analysis for quantification. Verapamil was used as a positive control.

[4] = mouse, microsomes, 0.5 h, 1 μM, pH 7.4
Protocol: as §3

[5] = rat, microsomes, 0.5 h, 1 μM, pH 7.4
Protocol: as §3

in vitro [6] = details: human, microsomes, pH 7.4
Protocol: as §3

in vitro [7] = details: mouse, microsomes, pH 7.4
Protocol: as §3

in vitro [8] = details: rat, microsomes, pH 7.4
Protocol: as §3

CYP-1A2 = CYP-1A2 (Homo sapiens (Human), UniProt P05177); experiment: CYP panel profile: P450 inhibition, CYP-1A2; assay type: in vitro ADME
Protocol: (§1) 5. CYP Panel Profile: P450 Inhibition
(§2) From 10 mM stock solutions of test compounds, a dilution plate was prepared diluting serially starting from 5 mM up to 2 μM in Acetonitrile/DMSO or Methanol/DMSO Human liver Microsomes were added at required concentration as per specific CYP isoform in a deep well assay plate (1A2, 2C9, 2D6, 2B6, 2C8, 2C19, and 3A4). Compounds were spiked in all wells from dilution plate at final concentrations starting from 50 μM up to 0.02 μM, except for positive and negative control. Specific substrate were added to all wells and reactions were pre-incubated for 10 min. To start reactions, NADPH was added to all wells at 1 mM final concentration. Assay plate was mixed by vortexing and incubated at 37° C. for […] for 3A4.20 min for (1A2, 2C9, 2B6, 2C8, 2D6) and […] for 2C19. A quencher with chilled acetonitrile suitable internal standard was added. Samples were centrifuged and supernatants were collected and subjected to LC-MS/MS analysis for determination.

CYP-2C9 = CYP-2C9 (Homo sapiens (Human), UniProt P11712); experiment: CYP panel profile: P450 inhibition, CYP-2C9; assay type: in vitro ADME; details: human liver microsomes
Protocol: as §1, §2

CYP-2D6 = CYP-2D6 (Homo sapiens (Human), UniProt P10635); experiment: CYP panel profile: P450 inhibition, CYP-2D6; assay type: in vitro ADME; details: human liver microsomes
Protocol: as §1, §2

CYP-2B6 = CYP-2B6 (Homo sapiens (Human), UniProt P20813); experiment: CYP panel profile: P450 inhibition, CYP-2B6; assay type: in vitro ADME; details: human liver microsomes
Protocol: as §1, §2

CYP-2C8 = CYP-2C8 (Homo sapiens (Human), UniProt P10632); experiment: CYP panel profile: P450 inhibition, CYP-2C8; assay type: in vitro ADME; details: human liver microsomes
Protocol: as §1, §2

CYP-2C19 = CYP-2C19 (Homo sapiens (Human), UniProt P33261); experiment: CYP panel profile: P450 inhibition, CYP-2C19; assay type: in vitro ADME; details: human liver microsomes
Protocol: as §1, §2

CYP-3A4 = CYP-3A4 (Homo sapiens (Human), UniProt P08684); experiment: CYP panel profile: P450 inhibition, CYP-3A4; assay type: in vitro ADME; details: human liver microsomes
Protocol: as §1, §2

[9] = Liver microsomal stability, rat; details: for Rem @ RLM × 30 min: rat liver microsomes, 1 μM compound, 0.5 mg/ml protein; for half-life at 1 μM / microsomal CLint at 1 μM: rat, liver microsomes, pH 7.4
Protocol: as §3

[10] = Liver microsomal stability, human; details: for Rem @ HLM × 30 min: human liver microsomes, 1 μM compound, 0.5 mg/ml protein; for half-life at 1 μM / microsomal CLint at 1 μM: human, liver microsomes, pH 7.4
Protocol: as §3

[11] = Liver microsomal stability, mouse; details: for Rem @ MLM × 30 min: mouse liver microsomes, 1 μM compound, 0.5 mg/ml protein; for half-life at 1 μM / microsomal CLint at 1 μM: mouse, liver microsomes, pH 7.4
[12] = In vivo PK study, intravenous and oral administration in male mice; set-up: species or system mouse; details: plasma; for C0: read-out: C0_Cmax
Protocol: In Vivo PK Study Pharmacokinetics of Exemplary Compounds 362 and 893 Following an Intravenous and Oral Administration in Male C57BL/6J Mice.
Male C57BL/6J mice, approximately 8-10 weeks old, were obtained from the vivarium of Fundación Ciencia & Vida Chile (Santiago, Chile). Dosing solution of Compound 362 for PO administration was formulated in a vehicle containing 40% DMSO, 20% Kolliphor EL, 40% Propylene Glycol at 0.8 mg/mL. Dosing solution of Compound 362 for IV administration was formulated in a vehicle containing 30% DMSO, 20% Kolliphor EL, 50% PBS at […].
Male […] mice, approximately 8-11 weeks old, 22-27 grams were obtained from the vivarium Fundación Ciencia & Vida Chile (Santiago, Chile). Animals were acclimated for a minimum period of 4 days upon arrival at the testing facility. Animals were weighed, identified by marking the tail with numbers using a non-toxic permanent marker and designated into the following treatment groups on the day of dosing:
Group 1 animals received an IV administration via caudal vein of 2 mg/kg PRXS0362 dosing solution.
Group 2 animals received a PO administration via feeding tubes (20 gauge) of 8 mg/kg PRXS0362 dosing solution.
Terminal whole blood was collected via cardiac puncture for group 1 at the following time points: 5, 10, 15, 30, 60, 120, 240, 360, and 480 minutes. Non-dosed mice were used to collect samples of zero time points. For the group 2 at the following time point: 15, 30, 60, 120, 240, 360, and 480 minutes.
Whole blood, approximately 300 μL per time point, was collected into microtainer tubes with EDTA (K2). Blood samples were centrifuged immediately at approximately 9,000 G at 4° C. for 5 minutes and plasma separated. Plasma samples were placed into individually labeled tubes and stored in a −80° C. freezer prior to LC/MS/MS analysis.
The whole brain was collected at each point only for both groups, for this the animals were euthanized with CO2, decapitated, the brain was extracted weighed, frozen in liquid nitrogen and stored at −80° C. prior to LC/MS/MS analysis.
Compound 893 was tested by the same protocol as above.

[13] = human liver microsomes, read-out: CYP-1A2 IC50

aryl hydrocarbon receptor (AhR), sequence (P30561 10-805): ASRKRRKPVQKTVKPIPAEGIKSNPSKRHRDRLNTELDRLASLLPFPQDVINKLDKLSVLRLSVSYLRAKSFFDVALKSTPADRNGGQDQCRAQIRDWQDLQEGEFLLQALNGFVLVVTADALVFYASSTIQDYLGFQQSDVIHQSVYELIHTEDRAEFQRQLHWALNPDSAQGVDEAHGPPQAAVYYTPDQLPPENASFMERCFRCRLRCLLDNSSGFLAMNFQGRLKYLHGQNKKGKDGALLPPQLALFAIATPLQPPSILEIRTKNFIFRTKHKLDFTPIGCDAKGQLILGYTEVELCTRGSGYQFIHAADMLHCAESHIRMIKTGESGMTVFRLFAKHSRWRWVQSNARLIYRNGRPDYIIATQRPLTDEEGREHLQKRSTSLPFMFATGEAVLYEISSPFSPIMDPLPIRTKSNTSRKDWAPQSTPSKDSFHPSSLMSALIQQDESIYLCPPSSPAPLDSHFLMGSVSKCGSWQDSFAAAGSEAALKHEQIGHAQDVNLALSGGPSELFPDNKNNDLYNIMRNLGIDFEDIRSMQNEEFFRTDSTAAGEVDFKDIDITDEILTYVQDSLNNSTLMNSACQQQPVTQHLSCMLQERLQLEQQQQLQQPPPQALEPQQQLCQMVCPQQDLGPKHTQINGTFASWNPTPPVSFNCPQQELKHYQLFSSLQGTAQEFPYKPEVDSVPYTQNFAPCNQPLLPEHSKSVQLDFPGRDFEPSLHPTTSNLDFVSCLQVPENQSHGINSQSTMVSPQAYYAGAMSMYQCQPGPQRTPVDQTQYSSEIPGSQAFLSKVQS
aryl hydrocarbon receptor (AhR), sequence (P53762 whole entry partner): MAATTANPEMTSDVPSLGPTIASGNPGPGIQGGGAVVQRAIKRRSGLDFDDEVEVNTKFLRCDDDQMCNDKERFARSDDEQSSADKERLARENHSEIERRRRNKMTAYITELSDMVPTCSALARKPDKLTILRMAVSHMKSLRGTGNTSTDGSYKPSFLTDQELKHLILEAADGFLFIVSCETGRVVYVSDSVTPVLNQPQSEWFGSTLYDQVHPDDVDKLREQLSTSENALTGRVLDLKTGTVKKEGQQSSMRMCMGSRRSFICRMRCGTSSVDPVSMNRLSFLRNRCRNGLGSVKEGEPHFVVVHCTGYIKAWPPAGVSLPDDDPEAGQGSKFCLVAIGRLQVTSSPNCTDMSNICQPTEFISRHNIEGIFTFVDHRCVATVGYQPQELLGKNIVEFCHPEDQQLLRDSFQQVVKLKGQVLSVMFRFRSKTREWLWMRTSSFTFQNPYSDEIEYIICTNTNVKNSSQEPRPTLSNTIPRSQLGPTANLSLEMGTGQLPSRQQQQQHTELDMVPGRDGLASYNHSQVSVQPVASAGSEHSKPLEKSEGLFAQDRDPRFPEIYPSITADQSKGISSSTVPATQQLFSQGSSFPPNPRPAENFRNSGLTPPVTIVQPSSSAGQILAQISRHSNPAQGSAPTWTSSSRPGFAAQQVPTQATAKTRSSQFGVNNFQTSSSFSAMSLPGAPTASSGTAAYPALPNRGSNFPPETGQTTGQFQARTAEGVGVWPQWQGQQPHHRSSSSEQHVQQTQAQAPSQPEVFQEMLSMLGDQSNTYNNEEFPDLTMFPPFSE
CYP-1A2, sequence (P05177 whole entry): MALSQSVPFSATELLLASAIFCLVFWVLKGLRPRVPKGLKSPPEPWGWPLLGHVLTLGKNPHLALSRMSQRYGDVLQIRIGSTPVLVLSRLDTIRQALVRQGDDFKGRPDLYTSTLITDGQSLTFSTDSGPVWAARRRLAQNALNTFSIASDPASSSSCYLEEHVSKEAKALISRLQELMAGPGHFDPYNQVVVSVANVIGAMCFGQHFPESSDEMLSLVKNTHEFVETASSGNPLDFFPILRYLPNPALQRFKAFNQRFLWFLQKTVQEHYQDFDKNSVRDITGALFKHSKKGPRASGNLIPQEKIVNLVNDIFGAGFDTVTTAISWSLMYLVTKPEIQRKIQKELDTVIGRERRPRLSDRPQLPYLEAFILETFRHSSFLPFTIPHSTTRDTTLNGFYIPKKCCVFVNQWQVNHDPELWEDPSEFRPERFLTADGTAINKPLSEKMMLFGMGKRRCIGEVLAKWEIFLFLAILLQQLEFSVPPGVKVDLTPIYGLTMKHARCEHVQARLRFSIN
CYP-2D6, sequence (P10635 whole entry): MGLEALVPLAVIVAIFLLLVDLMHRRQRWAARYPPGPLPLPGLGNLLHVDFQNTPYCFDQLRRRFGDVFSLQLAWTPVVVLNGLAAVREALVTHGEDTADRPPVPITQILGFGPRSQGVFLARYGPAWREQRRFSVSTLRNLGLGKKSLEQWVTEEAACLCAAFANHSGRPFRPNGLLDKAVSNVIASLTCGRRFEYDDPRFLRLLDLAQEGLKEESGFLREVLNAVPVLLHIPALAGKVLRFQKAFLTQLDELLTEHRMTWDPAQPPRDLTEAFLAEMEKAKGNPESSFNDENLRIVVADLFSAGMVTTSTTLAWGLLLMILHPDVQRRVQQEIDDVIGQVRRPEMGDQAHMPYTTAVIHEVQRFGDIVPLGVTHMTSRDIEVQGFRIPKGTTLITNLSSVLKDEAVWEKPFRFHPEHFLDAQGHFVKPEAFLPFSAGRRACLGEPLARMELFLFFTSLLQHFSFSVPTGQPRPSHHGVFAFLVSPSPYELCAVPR
CYP-2B6, sequence (P20813 whole entry): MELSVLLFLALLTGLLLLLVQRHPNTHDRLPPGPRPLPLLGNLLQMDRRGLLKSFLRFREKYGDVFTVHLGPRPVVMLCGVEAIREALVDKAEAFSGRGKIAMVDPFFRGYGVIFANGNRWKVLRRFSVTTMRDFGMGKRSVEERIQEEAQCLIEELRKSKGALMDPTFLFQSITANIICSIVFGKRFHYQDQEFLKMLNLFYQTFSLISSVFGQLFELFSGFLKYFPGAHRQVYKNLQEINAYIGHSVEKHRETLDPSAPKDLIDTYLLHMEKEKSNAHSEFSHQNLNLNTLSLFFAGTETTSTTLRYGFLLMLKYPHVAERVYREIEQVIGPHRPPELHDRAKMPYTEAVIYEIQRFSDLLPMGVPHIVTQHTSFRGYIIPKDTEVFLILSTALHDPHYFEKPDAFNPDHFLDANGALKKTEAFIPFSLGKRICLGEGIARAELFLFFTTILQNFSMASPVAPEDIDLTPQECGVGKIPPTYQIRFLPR
CYP-2C19, sequence (P33261 whole entry): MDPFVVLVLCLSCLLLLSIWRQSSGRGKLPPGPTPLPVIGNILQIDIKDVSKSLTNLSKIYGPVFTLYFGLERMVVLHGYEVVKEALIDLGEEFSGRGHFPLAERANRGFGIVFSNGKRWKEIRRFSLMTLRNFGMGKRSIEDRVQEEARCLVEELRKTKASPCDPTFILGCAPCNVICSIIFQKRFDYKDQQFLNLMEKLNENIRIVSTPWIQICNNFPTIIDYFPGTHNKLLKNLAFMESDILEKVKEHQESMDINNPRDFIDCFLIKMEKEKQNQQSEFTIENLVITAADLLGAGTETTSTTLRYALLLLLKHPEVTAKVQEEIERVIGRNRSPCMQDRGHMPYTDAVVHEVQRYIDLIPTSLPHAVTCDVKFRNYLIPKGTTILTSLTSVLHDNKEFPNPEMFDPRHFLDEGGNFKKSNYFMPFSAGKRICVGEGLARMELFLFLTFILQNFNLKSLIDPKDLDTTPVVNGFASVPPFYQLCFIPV
CYP-2C8, sequence (P10632 whole entry): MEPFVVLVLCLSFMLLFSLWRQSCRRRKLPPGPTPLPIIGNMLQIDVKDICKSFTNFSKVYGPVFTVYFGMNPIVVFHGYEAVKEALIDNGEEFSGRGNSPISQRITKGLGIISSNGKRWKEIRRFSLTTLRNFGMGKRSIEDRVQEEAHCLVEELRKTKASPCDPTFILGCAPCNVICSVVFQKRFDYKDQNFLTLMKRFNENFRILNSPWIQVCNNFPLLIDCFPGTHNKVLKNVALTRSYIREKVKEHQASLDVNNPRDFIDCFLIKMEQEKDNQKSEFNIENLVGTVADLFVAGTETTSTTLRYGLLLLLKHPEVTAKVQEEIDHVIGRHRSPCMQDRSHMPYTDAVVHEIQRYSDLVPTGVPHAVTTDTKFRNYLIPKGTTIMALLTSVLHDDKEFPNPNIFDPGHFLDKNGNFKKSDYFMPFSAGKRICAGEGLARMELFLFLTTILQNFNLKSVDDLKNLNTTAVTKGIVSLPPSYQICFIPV
CYP-3A4, sequence (P08684 whole entry): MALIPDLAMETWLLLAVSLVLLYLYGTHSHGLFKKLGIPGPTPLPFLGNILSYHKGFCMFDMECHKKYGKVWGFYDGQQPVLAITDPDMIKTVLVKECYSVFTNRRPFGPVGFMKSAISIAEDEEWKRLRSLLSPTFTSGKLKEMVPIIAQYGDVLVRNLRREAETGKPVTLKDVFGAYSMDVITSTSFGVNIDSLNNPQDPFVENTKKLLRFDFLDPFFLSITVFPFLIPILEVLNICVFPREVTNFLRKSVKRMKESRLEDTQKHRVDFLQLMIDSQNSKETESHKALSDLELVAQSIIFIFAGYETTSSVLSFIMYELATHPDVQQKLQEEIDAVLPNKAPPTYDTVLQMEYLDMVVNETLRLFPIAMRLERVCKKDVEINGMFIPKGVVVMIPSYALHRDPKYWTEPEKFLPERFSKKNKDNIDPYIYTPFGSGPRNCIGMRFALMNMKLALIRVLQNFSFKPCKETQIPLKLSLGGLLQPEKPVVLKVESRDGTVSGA

SMILES	Fold @ 1 nM [2]	Fold @ 100 nM [2]	Fold @ 10 uM [2]	Fold relative to benchmark @ 100 nM [2]	IC50 (CYP-1A2; [13])	IC50 (CYP-2C9)	IC50 (CYP-2D6)	IC50 (CYP-2B6)	IC50 (CYP-2C8)	IC50 (CYP-2C19)	IC50 (CYP-3A4)	Rem @ RLM × 30 min [9]	half-life at 1 μM [9]	microsomal CLint at 1 μM [9]	Rem @ HLM × 30 min [10]	half-life at 1 μM [10]	microsomal CLint at 1 μM [10]	Rem @ MLM × 30 min [11]	half-life at 1 μM [11]	microsomal CLint at 1 μM [11]	other results
O=c1c2cccc3cccc(c32)c2nc3cc(Cl)ccc3n12 [Compound 11-Cl-BBQ, 11-chloro-7H-benzimidazo[2,1-a]benzo[de]-Iso-quinolin-7-one]																					development of T1D (T1D): suppress the development of T1D; development of GVHD (GVHD): suppress the development of T1D and GVHD; overt toxicity [1]: no overt toxicity
O=C(c1cccc2ccccc12)c1c[nH]c2cc(Cl)c(Cl)cc12 [Compound 434]	1 fold	1 fold	9 fold	0.03 fold																	Rem @ HLM × 30 min [3]: 63.4%; Rem @ MLM × 30 min [4]: 10.6%; Rem @ RLM × 30 min [5]: 41.6%; half-life at 1 μM (in vitro [6]): 48.7 min; microsomal CLint at 1 μM (in vitro [6]): 28.5 µL/min/mg; half-life at 1 μM (in vitro [7]): 10.7 min; microsomal CLint at 1 μM (in vitro [7]): 129 µL/min/mg; half-life at 1 μM (in vitro [8]): 28 min; microsomal CLint at 1 μM (in vitro [8]): 49.6 µL/min/mg
O=C(c1ccc(F)c(F)c1)n1c(-c2ccc(-c3ccccc3)cc2)nc2ccc(Cl)cc21 [Compound 644]	1 fold	1 fold	2 fold	0.11 fold	4.7 µM	2.7 µM	8.2 µM	> 50 µM	1.7 µM	> 50 µM	> 50 µM	36.8%	28.7 min	48 µL/min/mg	69.8%	77.9 min	18 µL/min/mg	71.7%	70.5 min	20 µL/min/mg	
O=S(=O)(c1ccc(C(F)(F)F)cc1)n1c(-c2cccc3ccccc23)nc2ccc(Cl)cc21 [Compound 782]	1 fold	23 fold	19 fold	0.92 fold	47.9 µM	> 50 µM	> 50 µM	> 50 µM	> 50 µM	6 µM	0.4 µM	31.8%	17.8 min	78 µL/min/mg	66.4%	50.5 min	27.4 µL/min/mg	14.9%	10.9 min	127 µL/min/mg	
O=C(c1ccc2ccccc2c1)c1c[nH]c2ccc(Cl)cc12 [Compound 885]	1 fold	1 fold	1 fold	0.02 fold																	Rem @ HLM × 30 min [3]: 58.1%; Rem @ MLM × 30 min [4]: 45.1%; Rem @ RLM × 30 min [5]: 50.2%; half-life at 1 μM (in vitro [6]): 36.8 min; microsomal CLint at 1 μM (in vitro [6]): 37.7 µL/min/mg; half-life at 1 μM (in vitro [7]): 27.5 min; microsomal CLint at 1 μM (in vitro [7]): 50.4 µL/min/mg; half-life at 1 μM (in vitro [8]): 30.7 min; microsomal CLint at 1 μM (in vitro [8]): 45.1 µL/min/mg
Clc1ccc2[nH]c(-c3cccc4ccccc34)cc2c1 [Compound 893, 5-chloro-2-(naphthalen-1-yl)-1H-indole]	1 fold	49 fold	49 fold	0.91 fold	0.5 µM	7.2 µM	31.7 µM	8 µM	7.7 µM	2.9 µM	23.3 µM	51.7%	35.8 min	38.8 µL/min/mg	19.6%	14.1 min	98.5 µL/min/mg	16.7%	12.2 min	114 µL/min/mg	CL_CL/F ([12]; IV 2 mg/Kg): 4.218 L/[Kg*h]; Vd_Vd/F ([12]; IV 2 mg/Kg): 8.777 L/kg; thalf ([12]; IV 2 mg/Kg): 1.442 h; CL_CL/F ([12]; PO 8 mg/Kg): 5.739 L/[Kg*h]; Vd_Vd/F ([12]; PO 8 mg/Kg): 12.846 L/kg; thalf ([12]; PO 8 mg/Kg): 1.551 h; AUC(0-inf) ([12]; mouse, IV 2 mg/Kg): 474 ng·h/mL; AUC(0-t) ([12]; mouse, IV 2 mg/Kg): 451 ng·h/mL; MRT ([12]; mouse, IV 2 mg/Kg): 120 min; C0 ([12]; mouse, IV 2 mg/Kg): 174 ng/mL; bioavailability ([12]; mouse, PO 8 mg/Kg vs IV 2 mg/Kg): 73.5%; AUC(0-inf) ([12]; mouse, PO 8 mg/Kg): 1390 ng·h/mL; AUC(0-t) ([12]; mouse, PO 8 mg/Kg): 1330 ng·h/mL; MRT ([12]; mouse, PO 8 mg/Kg): 160 min; Tmax ([12]; mouse, PO 8 mg/Kg): 60 min; C0 ([12]; mouse, PO 8 mg/Kg): 398 ng/mL
O=C(C1CC1)n1c(-c2cccc3ccccc23)cc2cc(Cl)ccc21 [Compound 972]	1 fold	2 fold	45 fold	0.04 fold	7 µM	7 µM	> 50 µM	4.3 µM	> 48.8 µM	0.2 µM	> 50 µM	20.7%	13.3 min	105 µL/min/mg	73.0%	74.9 min	18.5 µL/min/mg	26.7%	15.9 min	87.1 µL/min/mg	
O=C(c1ccc(F)c(F)c1)n1c(-c2cccc3ccccc23)cc2cc(Cl)ccc21 [Compound 973]	1 fold	1 fold	1 fold	0.02 fold		> 50 µM	> 50 µM	> 50 µM	> 50 µM	23.1 µM	> 50 µM	46.3%	26.5 min	52.3 µL/min/mg	34.2%	16.7 min	83.1 µL/min/mg	58.7%	39.9 min	34.8 µL/min/mg	IC50 (CYP-1A2): > 50 µM
